Experimental data as given in paper PMC10897476, “Pyridylpiperazine efflux pump inhibitor boosts in vivo antibiotic efficacy against K. pneumoniae” (EMBO Molecular Medicine, 2023).
Several values for one entry are separate records, joined by “and”; a condition that tells them apart may be missing. Equal entries are not always repeated.

Columns and labels:
Type in all cases: cell-based, Klebsiella pneumoniae
K. pneumoniae AcrB^V448E [1] = assay: MIC of antibiotics with and without EPI (REMA), AcrB V448E mutant; details: K. pneumoniae-AcrB^V448E, Table 2
Method in brief: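 K. pneumoniae ATCC 43816 carrying single chromosomal acrB or ramR mutations introduced by allelic exchange, diluted to OD600 = 0.001 in CAMHB with EPI at final 100 µM. Incubated 37 °C up to 20 h; viability by resazurin fluorescence (Ex 530/Em 590 nm).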

[2] = tested on: K. pneumoniae ATCC 43816 (WT); assay: Checkerboard assay levofloxacin x EPI, WT strain; details: for checkerboard growth readout: ATCC43816 WT, levofloxacin 0 ng/mL; for percentage resazurin turnover: individual replicates, listed as BDM91288; for Median REMA values (percentage resazurin turnover): median n=3
Method: (§1) MIC experiments were carried out according to the CLSI guidelines (CLSI [2023]). Overnight cultures were diluted to an OD600 = 0.001 in CAMHB followed by addition of efflux pump inhibitors (EPIs) at a final concentration of 100 µM. […] Plates were incubated at 37 °C for up to 20 h. Bacterial viability was evaluated using the resazurin microtitre assay (REMA) and measured by fluorescence using a Tecan Spaert multimode plate reader (Ex: 530 nm Em: 590 nm). MICs were defined as the concentration that prevented 90% of resazurin turnover compared to the non-treated bacteria.
(§2) Bacterial suspensions, incubation and plate readouts were carried out as described above.

K. pneumoniae AcrB^V448E [3] = assay: Checkerboard assay levofloxacin x EPI, AcrB V448E mutant; details: for checkerboard growth readout: ATCC43816 AcrBV448E, levofloxacin 0 ng/mL; for Median REMA values / percentage resazurin turnover: Lev 0.00 ng/mL
Method: as §1, §2

[4] = tested on: K. pneumoniae RamR^mut (K124*stop); assay: Checkerboard assay levofloxacin x EPI, RamR mutant; details: for checkerboard growth readout: ATCC43816 ramRmut, levofloxacin 0 ng/mL
Method: as §1, §2

[5] = tested on: K. pneumoniae AcrB^V448E RamR^mut; assay: Checkerboard assay levofloxacin x EPI, double mutant; parameters: checkerboard growth readout: unit not given here; details: for checkerboard growth readout: ATCC43816 AcrBV448E ramRmut, levofloxacin 0 ng/mL
Method: as §1, §2

Clc1cc2cc(N3CCNCC3)ccc2nc1N1CCNCC1 [compound 5]
susceptibility of the strain to antibiotic boosting by the EPI, in words (K. pneumoniae AcrB^V448E [1]): resistant
checkerboard growth readout ([2]; EPI 2.3 µM): 105
checkerboard growth readout ([2]; EPI 4.7 µM): 106
checkerboard growth readout ([2]; EPI 9.4 µM): 97
checkerboard growth readout ([2]; EPI 19 µM): 85
checkerboard growth readout ([2]; EPI 38 µM): 109
checkerboard growth readout ([2]; EPI 75 µM): 121
checkerboard growth readout ([2]; EPI 150 µM): 118
checkerboard growth readout ([2]; EPI 300 µM): 87
maximal boosting of levofloxacin activity (decrease of MIC) ([2]; K. pneumoniae WT (ATCC 43816), at 38 µM BDM91288): 4 fold
concentration needed for efficacy in vitro (boosting levofloxacin activity) ([2]; K. pneumoniae WT, Fig. 2): 9 to 38 µM
percentage resazurin turnover ([2]; Lev 0.00 ng/mL + EPI 2.34 uM): 110% and 85% and 105%
Median REMA values (percentage resazurin turnover) ([2]; Lev 0.00 ng/mL + EPI 2.34 uM): 105%
percentage resazurin turnover ([2]; Lev 0.00 ng/mL + EPI 4.69 uM): 106% and 98% and 117%
Median REMA values (percentage resazurin turnover) ([2]; Lev 0.00 ng/mL + EPI 4.69 uM): 106%
percentage resazurin turnover ([2]; Lev 0.00 ng/mL + EPI 9.38 uM): 97% and 89% and 110%
Median REMA values (percentage resazurin turnover) ([2]; Lev 0.00 ng/mL + EPI 9.38 uM): 97%
percentage resazurin turnover ([2]; Lev 0.00 ng/mL + EPI 18.75 uM): 66% and 85% and 116%
Median REMA values (percentage resazurin turnover) ([2]; Lev 0.00 ng/mL + EPI 18.75 uM): 85%
percentage resazurin turnover ([2]; Lev 0.00 ng/mL + EPI 37.50 uM): 112% and 98% and 109%
Median REMA values (percentage resazurin turnover) ([2]; Lev 0.00 ng/mL + EPI 37.50 uM): 109%
percentage resazurin turnover ([2]; Lev 0.00 ng/mL + EPI 75.00 uM): 89% and 138% and 121%
Median REMA values (percentage resazurin turnover) ([2]; Lev 0.00 ng/mL + EPI 75.00 uM): 121%
percentage resazurin turnover ([2]; Lev 0.00 ng/mL + EPI 150.00 uM): 94% and 132% and 118%
Median REMA values (percentage resazurin turnover) ([2]; Lev 0.00 ng/mL + EPI 150.00 uM): 118%
percentage resazurin turnover ([2]; Lev 0.00 ng/mL + EPI 300 uM): 107% and 80% and 87%
Median REMA values (percentage resazurin turnover) ([2]; Lev 0.00 ng/mL + EPI 300 uM): 87%
concentration at which boosting of levofloxacin activity starts ([2]; parental K. pneumoniae strain, checkerboard): around 9 µM
checkerboard growth readout (K. pneumoniae AcrB^V448E [3]; EPI 2.3 µM): 105
checkerboard growth readout (K. pneumoniae AcrB^V448E [3]; EPI 4.7 µM): 99
checkerboard growth readout (K. pneumoniae AcrB^V448E [3]; EPI 9.4 µM): 105
checkerboard growth readout (K. pneumoniae AcrB^V448E [3]; EPI 19 µM): 100
checkerboard growth readout (K. pneumoniae AcrB^V448E [3]; EPI 38 µM): 109
checkerboard growth readout (K. pneumoniae AcrB^V448E [3]; EPI 75 µM): 118
checkerboard growth readout (K. pneumoniae AcrB^V448E [3]; EPI 150 µM): 109
checkerboard growth readout (K. pneumoniae AcrB^V448E [3]; EPI 300 µM): 93
boosting of levofloxacin activity, in words (K. pneumoniae AcrB^V448E [3]; K. pneumoniae AcrB^V448E): boosting was no longer observed
Median REMA values (K. pneumoniae AcrB^V448E [3]; BDM91288 2.34 uM): 105%
percentage resazurin turnover (K. pneumoniae AcrB^V448E [3]; BDM91288 2.34 uM): 105% and 87% and 109%
Median REMA values (K. pneumoniae AcrB^V448E [3]; BDM91288 4.69 uM): 99%
percentage resazurin turnover (K. pneumoniae AcrB^V448E [3]; BDM91288 4.69 uM): 99% and 89% and 111%
Median REMA values (K. pneumoniae AcrB^V448E [3]; BDM91288 9.38 uM): 105%
percentage resazurin turnover (K. pneumoniae AcrB^V448E [3]; BDM91288 9.38 uM): 105% and 90% and 114%
Median REMA values (K. pneumoniae AcrB^V448E [3]; BDM91288 18.75 uM): 100%
percentage resazurin turnover (K. pneumoniae AcrB^V448E [3]; BDM91288 18.75 uM): 100% and 93% and 138%
Median REMA values (K. pneumoniae AcrB^V448E [3]; BDM91288 37.50 uM): 109%
percentage resazurin turnover (K. pneumoniae AcrB^V448E [3]; BDM91288 37.50 uM): 99% and 109% and 157%
Median REMA values (K. pneumoniae AcrB^V448E [3]; BDM91288 75.00 uM): 118%
percentage resazurin turnover (K. pneumoniae AcrB^V448E [3]; BDM91288 75.00 uM): 124% and 117% and 118%
Median REMA values (K. pneumoniae AcrB^V448E [3]; BDM91288 150.00 uM): 109%
percentage resazurin turnover (K. pneumoniae AcrB^V448E [3]; BDM91288 150.00 uM): 109% and 152% and 108%
Median REMA values (K. pneumoniae AcrB^V448E [3]; BDM91288 300 uM): 93%
percentage resazurin turnover (K. pneumoniae AcrB^V448E [3]; BDM91288 300 uM): 114% and 93% and 89%
checkerboard growth readout ([4]; EPI 2.3 µM): 90
checkerboard growth readout ([4]; EPI 4.7 µM): 91
checkerboard growth readout ([4]; EPI 9.4 µM): 93
checkerboard growth readout ([4]; EPI 19 µM): 96
checkerboard growth readout ([4]; EPI 38 µM): 124
checkerboard growth readout ([4]; EPI 75 µM): 151
checkerboard growth readout ([4]; EPI 150 µM): 151
checkerboard growth readout ([4]; EPI 300 µM): 103
reversion of RamR-mediated levofloxacin resistance, in words ([4]; K. pneumoniae RamR^mut): completely reverted
checkerboard growth readout ([5]; EPI 2.3 µM): 87
checkerboard growth readout ([5]; EPI 4.7 µM): 75
checkerboard growth readout ([5]; EPI 9.4 µM): 86
checkerboard growth readout ([5]; EPI 19 µM): 93
checkerboard growth readout ([5]; EPI 38 µM): 98
checkerboard growth readout ([5]; EPI 75 µM): 128
checkerboard growth readout ([5]; EPI 150 µM): 153
checkerboard growth readout ([5]; EPI 300 µM): 136
modulation of levofloxacin MIC, in words ([5]; K. pneumoniae AcrB^V448E RamR^mut): No modulation
